This note sets out measurements from US20240150293A1, “SPIROCYCLOHEXANE DERIVATIVES, PHARMACEUTICAL COMPOSITIONS CONTAINING THEM AND THEIR USES AS ANTI-APOPTOTIC INHIBITORS” (LES LABORATOIRES SERVIER, priority 2021, published 2024).

pIC50, pKi: −log10 of the molar value.

Assay [1] concerns H929 multiple myeloma tumor line. The assay is described as follows: In vitro cytotoxicity, MTT assay (Example B, Method A). It is filed as cell-based. The note with it: Homo sapiens, NCI-H929, 48 h, H929 cells, 48 hours exposure, read-out: C50. The protocol: The cytotoxicity studies were carried out on the H929 multiple myeloma tumor line.
The cells are distributed onto microplates and exposed to the test compounds for 48 hours. The cell viability is then quantified by a colorimetric assay, the Microculture Tetrazolium Assay (Carmichael et al, Cancer Res. 1987, 47, 939-942).
The results are expressed in C50 which means concentration corresponding to […] of effect/inhibition.
(Tetrazolium assays rely on reduction of a dye to a coloured formazan, in cell work by metabolically active cells.)

Assay [2] concerns the target Cy5-labelled Mcl1 (amino acids 171-321) C286S protein (UniProtKB Q07820) (Homo sapiens (Human), UniProt Q07820, C286S). Briefly: Inhibition of Mcl-1 by the fluorescence quenching assay (Example A, Method B). It is filed as binding. The method in brief:
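Cy5-labelled Mcl1 171-321 C286S (1 nM) quenched by TQ5WS-labelled PUMA peptide (10, 20 or 400 nM); displacement raises fluorescence (Ex 620/Em 680 nm). Buffer 10 mM HEPES, 150 mM NaCl, 0.05% Tween 20, pH 7.4, 5% DMSO; 2 h at room temperature, 11-point curves, IC50 converted to Ki (cKi/eKi).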

Sequence of Cy5-labelled Mcl1 (amino acids 171-321) C286S protein (Q07820 171-321 C286S): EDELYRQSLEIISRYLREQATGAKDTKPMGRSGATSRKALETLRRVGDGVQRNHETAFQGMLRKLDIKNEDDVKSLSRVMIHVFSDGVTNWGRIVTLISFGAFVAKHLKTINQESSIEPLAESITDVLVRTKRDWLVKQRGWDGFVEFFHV

What is called pKi is the Ki on a negative log10 scale, so that one unit is a factor of ten. For `Cc1cccc2c1C=C(C[C@@H](C)COc1ccnc3c1[C@H](C)CCC3)[C@]21CC[C@](Nc2cccc(Cl)c2)(C(=O)O)CC1` [Example 753, (1r,4R)-4-(3-chloroanilino)-4′-methyl-2′-[(2R)-2-methyl-3-{[(5R)-5-methyl-5,6,7,8-tetrahydroquinolin-4-yl]oxy}propyl]spiro[cyclohexane-1,1′-indene]-4-carboxylic acid], the pIC50 in assay [1] was 6.95. In addition, the pKi in assay [2] is 8.49.
Turning to `CC(=O)c1cc(C)c2c(c1)[C@]1(CC[C@@](Nc3cccc(Cl)c3)(C(=O)O)CC1)C(C[C@@H](C)COc1ccnc3c1[C@H](C)CCC3)=C2` [Example 756, (1r,4R)-6′-acetyl-4-(3-chloroanilino)-4′-methyl-2′-[(2R)-2-methyl-3-{[(5R)-5-methyl-5,6,7,8-tetrahydroquinolin-4-yl]oxy}propyl]spiro[cyclohexane-1,1′-indene]-4-carboxylic acid], the pIC50 in assay [1] was 7.21. Further, the pKi in assay [2] is 9.00.
The corresponding values for `C[C@@H](COc1ccnc2c1[C@@H](C)CCC2)C[C@H]1Cc2cccc(F)c2[C@]12CC[C@@](Nc1cccc(Cl)c1)(C(=O)O)CC2` [Example 762, (1r,2′S,4S)-4-(3-chloroanilino)-7′-fluoro-2′-[(2R)-2-methyl-3-{[(5S)-5-methyl-5,6,7,8-tetrahydroquinolin-4-yl]oxy}propyl]-2′,3′-dihydrospiro[cyclohexane-1,1′-indene]-4-carboxylic acid] are 6.41 and 7.92.
The corresponding values for `C[C@@H](COc1ccnc2c1[C@H](C)CCC2)C[C@H]1Cc2ccc(F)cc2[C@]12CC[C@@](Nc1cccc(Cl)c1)(C(=O)O)CC2` [Example 765, (1r,2′S,4S)-4-(3-chloroanilino)-6′-fluoro-2′-[(2R)-2-methyl-3-{[(5R)-5-methyl-5,6,7,8-tetrahydroquinolin-4-yl]oxy}propyl]-2′,3′-dihydrospiro[cyclohexane-1,1′-indene]-4-carboxylic acid] are 6.68 and 9.18.
The corresponding values for `C[C@@H](COc1ccnc2c1[C@H](C)CCC2)C[C@@H]1Cc2ccc(F)cc2[C@]12CC[C@@](Nc1cccc(Cl)c1)(C(=O)O)CC2` [Example 766, (1r,2′R,4R)-4-(3-chloroanilino)-6′-fluoro-2′-[(2R)-2-methyl-3-{[(5R)-5-methyl-5,6,7,8-tetrahydroquinolin-4-yl]oxy}propyl]-2′,3′-dihydrospiro[cyclohexane-1,1′-indene]-4-carboxylic acid] are 6.42 and 8.64.
Consider `C[C@@H](COc1ccnc2c1[C@H](C)CCC2)CC1=Cc2cc(F)ccc2[C@]12CC[C@@](Nc1cccc(Cl)c1)(C(=O)O)CC2` [Example 767, (1r,4R)-4-(3-chloroanilino)-5′-fluoro-2′-[(2R)-2-methyl-3-{[(5R)-5-methyl-5,6,7,8-tetrahydroquinolin-4-yl]oxy}propyl]spiro[cyclohexane-1,1′-indene]-4-carboxylic acid], for which the pIC50 in assay [1] is 7.10. The pKi in assay [2] is 9.52.
For `C[C@@H](COc1ccnc2c1[C@H](C)CCC2)C[C@@H]1Cc2cc(F)ccc2[C@]12CC[C@@](Nc1cccc(Cl)c1)(C(=O)O)CC2` [Example 769, (1r,2′R,4R)-4-(3-chloroanilino)-5′-fluoro-2′-[(2R)-2-methyl-3-{[(5R)-5-methyl-5,6,7,8-tetrahydroquinolin-4-yl]oxy}propyl]-2′,3′-dihydrospiro[cyclohexane-1,1′-indene]-4-carboxylic acid], in that order: 6.90 and 8.82.
In the case of `C[C@@H](COc1ccnc2c1[C@H](C)CC[C@H]2O)CC1=Cc2cc(F)ccc2[C@]12CC[C@@](Nc1cccc(Cl)c1)(C(=O)O)CC2` [Example 770, (1r,4R)-4-(3-chloroanilino)-5′-fluoro-2′-[(2R)-3-{[(5R,8R)-8-hydroxy-5-methyl-5,6,7,8-tetrahydroquinolin-4-yl]oxy}-2-methylpropyl]spiro[cyclohexane-1,1′-indene]-4-carboxylic acid], the pIC50 in assay [1] was 7.04. Moreover, the negative logarithm of the Ki (pKi) in assay [2] was 9.46.
The corresponding values for `C[C@@H](COc1ccnc2c1[C@H](C)CC[C@H]2O)C[C@H]1Cc2cc(F)ccc2[C@]12CC[C@@](Nc1cccc(Cl)c1)(C(=O)O)CC2` [Example 771, (1r,2′S,4S)-4-(3-chloroanilino)-5′-fluoro-2′-[(2R)-3-{[(5R,8R)-8-hydroxy-5-methyl-5,6,7,8-tetrahydroquinolin-4-yl]oxy}-2-methylpropyl]-2′,3′-dihydrospiro[cyclohexane-1,1′-indene]-4-carboxylic acid] are 7.74 and 9.75.
For `C[C@@H](COc1ccnc2c1[C@H](C)CC[C@H]2F)CC1=Cc2cc(F)ccc2[C@]12CC[C@@](Nc1cccc(Cl)c1)(C(=O)O)CC2` [Example 772, (1r,4R)-4-(3-chloroanilino)-5′-fluoro-2′-[(2R)-3-{[(5R,8R)-8-fluoro-5-methyl-5,6,7,8-tetrahydroquinolin-4-yl]oxy}-2-methylpropyl]spiro[cyclohexane-1,1′-indene]-4-carboxylic acid], in that order: 6.90 and 8.44.
Consider `C[C@@H](COc1ccnc2c1[C@H](C)CC[C@H]2C)C[C@H]1Cc2cc(F)ccc2[C@]12CC[C@@](Nc1cccc(Cl)c1)(C(=O)O)CC2` [Example 773, (1r,2′S,4S)-4-(3-chloroanilino)-2′-[(2R)-3-{[(5R,8R)-5,8-dimethyl-5,6,7,8-tetrahydroquinolin-4-yl]oxy}-2-methylpropyl]-5′-fluoro-2′,3′-dihydrospiro[cyclohexane-1,1′-indene]-4-carboxylic acid], for which the pIC50 in assay [1] was 7.49. Moreover, the pKi in assay [2] is 9.55.
For `C[C@@H](COc1ccnc2c1[C@H](C)CCC2)CC1=Cc2cc(F)c(F)cc2[C@]12CC[C@@](Nc1cccc(Cl)c1)(C(=O)O)CC2` [Example 774, (1r,4R)-4-(3-chloroanilino)-5′,6′-difluoro-2′-[(2R)-2-methyl-3-{[(5R)-5-methyl-5,6,7,8-tetrahydroquinolin-4-yl]oxy}propyl]spiro[cyclohexane-1,1′-indene]-4-carboxylic acid], in that order: 6.93 and 8.85.
Turning to `C[C@@H](COc1ccnc2c1[C@H](C)CCC2)C[C@@H]1Cc2cc(F)c(F)cc2[C@]12CC[C@@](Nc1cccc(Cl)c1)(C(=O)O)CC2` [Example 776, (1r,2′R,4R)-4-(3-chloroanilino)-5′,6′-difluoro-2′-[(2R)-2-methyl-3-{[(5R)-5-methyl-5,6,7,8-tetrahydroquinolin-4-yl]oxy}propyl]-2′,3′-dihydrospiro[cyclohexane-1,1′-indene]-4-carboxylic acid], in assay [1], the pIC50 is 6.64. Also, the pKi in assay [2] was 8.64.
The corresponding values for `C[C@@H](COc1ccnc2c1[C@H](C)CCC2)CC1=Cc2cc(Cl)ccc2[C@]12CC[C@@](Nc1cccc(Cl)c1)(C(=O)O)CC2` [Example 777, (1r,4R)-5′-chloro-4-(3-chloroanilino)-2′-[(2R)-2-methyl-3-{[(5R)-5-methyl-5,6,7,8-tetrahydroquinolin-4-yl]oxy}propyl]spiro[cyclohexane-1,1′-indene]-4-carboxylic acid] are 6.76 and 9.14.
Turning to `C[C@@H](COc1ccnc2c1[C@H](C)CCC2)C[C@@H]1Cc2cc(Cl)ccc2[C@]12CC[C@@](Nc1cccc(Cl)c1)(C(=O)O)CC2` [Example 779, (1r,2′R,4R)-5′-chloro-4-(3-chloroanilino)-2′-[(2R)-2-methyl-3-{[(5R)-5-methyl-5,6,7,8-tetrahydroquinolin-4-yl]oxy}propyl]-2′,3′-dihydrospiro[cyclohexane-1,1′-indene]-4-carboxylic acid], the pIC50 in assay [1] was 6.84. The pKi in assay [2] is 9.37.
For `C[C@@H](COc1ccnc2c1[C@@H](C)CCC2)C[C@H]1Cc2ccc(O)cc2[C@]12CC[C@@](Nc1cccc(Cl)c1)(C(=O)O)CC2` [Example 780, (1r,2′S,4S)-4-(3-chloroanilino)-6′-hydroxy-2′-[(2R)-2-methyl-3-{[(5S)-5-methyl-5,6,7,8-tetrahydroquinolin-4-yl]oxy}propyl]-2′,3′-dihydrospiro[cyclohexane-1,1′-indene]-4-carboxylic acid], in that order: 6.19 and 8.05.
As to `COc1ccc2c(c1)[C@]1(CC[C@@](Nc3cccc(Cl)c3)(C(=O)O)CC1)[C@@H](C[C@@H](C)COc1ccnc3c1[C@@H](C)CCC3)C2` [Example 783, (1r,2′S,4S)-4-(3-chloroanilino)-6′-methoxy-2′-[(2R)-2-methyl-3-{[(5S)-5-methyl-5,6,7,8-tetrahydroquinolin-4-yl]oxy}propyl]-2′,3′-dihydrospiro[cyclohexane-1,1′-indene]-4-carboxylic acid], the pIC50 in assay [1] is 6.37. Also, the pKi in assay [2] was 7.99.
The corresponding values for `C[C@@H](COc1ccnc2c1[C@H](C)CCC2)C[C@H]1Cc2ccc(Oc3ccccc3)cc2[C@]12CC[C@@](Nc1cccc(Cl)c1)(C(=O)O)CC2` [Example 793, (1r,2′S,4S)-4-(3-chloroanilino)-2′-[(2R)-2-methyl-3-{[(5S)-5-methyl-5,6,7,8-tetrahydroquinolin-4-yl]oxy}propyl]-6′-phenoxy-2′,3′-dihydrospiro[cyclohexane-1,1′-indene]-4-carboxylic acid] are 6.07 and 7.75.
